Test results as given in ChEMBL document CHEMBL1154992, “New steroidal glycosides from the fruits of Tribulus terrestris” (J Nat Prod, 2000).
Converted amounts (≈) assume the structure as drawn.

System: SK-MEL
Assay: Cytotoxicity against human SK-MEL cells after 48 hrs by neutral red staining
Format: functional, cell-based

SMILES: C[C@H]1CC[C@@]2(OC1)O[C@H]1C[C@H]3[C@@H]4CC[C@@H]5C[C@@H](O[C@@H]6O[C@H](CO)[C@H](O[C@@H]7O[C@H](CO)[C@@H](O)[C@H](O)[C@H]7O)[C@H](O)[C@H]6O[C@@H]6O[C@@H](C)[C@H](O)[C@@H](O)[C@H]6O)CC[C@]5(C)[C@H]4CC[C@]3(C)[C@H]1[C@@H]2C
- IC50: 6.7 µg/mL (≈ 7.55 µM)
